One may read the melting point as the temperature of the solid-liquid transition. Compound `Cc1cc(C)c(S(=O)(=O)N(C)C)cc1[N+](=O)[O-]` [Example 2, 2,4-Dimethyl-5-nitro(N,N-dimethyl)benzenesulfonamide] gave a melting point of 113 °C.

Take `COc1cc(C)c(S(=O)(=O)N(C)C)cc1[N+](=O)[O-]` [Example 3, 4-Methoxy-2-methyl-5-nitro(N,N-dimethyl)benzenesulfonamide]: the melting point lay in the range of 130 to 132 °C.

These data come from patent US6617357B2, “Compounds and their use as PDE inhibitors” (SmithKline Beecham Corporation, priority 2001, dated 2003).
